Data set [1] has as its target T1, CYP-P450 3A4 (Homo sapiens, UniProt P08684).
T1 construct: host or cells: human liver microsomes or recombinant P450 microsomes
The experiment in a line: CYP-P450 reversible inhibition, 3A4. The following applies: human liver microsomes or recombinant P450 microsomes; fluorescent probe. The class given is in vitro ADME. As to the method: (§1) This assay measured the reversible inhibition of the test compounds against three cytochrome P450 isozymes (CYP-P450 3A4, 2C9 and 2D6) in an automated screening formate. […] Cumene hydroperoxide, NADPH or NADPH regenerating systems can be used as electron donors for the P450 catalytic cycle. Control incubations containing no inhibitor or no fluorescent probe were performed to evaluate the 100% and 0% activities, respectively. The activity of P450 enzyme was evaluated in the presence of 0.137, 0.273, 0.547, 1.094, 2.188, 4.375, 8.750, 17.5, 35.0 and 70.0 μM concentrations of the test compounds. Inhibition curves were generated and IC50 values were calculated for each tested compound using standard techniques.

In data set [2] the target is CYP3A4 (Homo sapiens, UniProt P08684). The experiment in a line: CYP-P450 reversible inhibition, 3A4. The class given is in vitro ADME. Further details: host or cells: human liver microsomes or recombinant P450 microsomes. The following applies: probe fluorogenic probe (not named); human liver microsomes or recombinant P450 microsomes; fluorescent probe. As for the experimental part: as §1

Data set [3] is described as follows: Liver microsome stability in 4 species: rat. It counts as in vitro ADME. The following applies: substrate 0.5 uM, microsome 0.25 mg/mL. As to the method:
(§2) In a separate experiment as exemplified in Table 3, the stability of the current Example 1 and the comparator Compound #290 in incubations with microsome preparations from 4 different species were also determined (Note 5).
(§3) X. S. Tong, et. al., J. of Chromatography, 2006, 833, 165.

In data set [4] the target is T2, CYP-P450 2C9 (Homo sapiens, UniProt P11712).
T2 construct: host or cells: human liver microsomes or recombinant P450 microsomes
The experiment in a line: CYP-P450 reversible inhibition, 2C9. The class given is in vitro ADME. The following applies: human liver microsomes or recombinant P450 microsomes; fluorescent probe. As for the experimental part:
as §1

Data set [5] concerns the target T3, CYP2D6 (Homo sapiens, UniProt P10635).
T3 construct: host or cells: human liver microsomes or recombinant P450 microsomes
Description: CYP-P450 reversible inhibition, 2D6. The class given is in vitro ADME. The following applies: probe fluorogenic probe (not named); human liver microsomes or recombinant P450 microsomes; fluorescent probe. As to the method:
as §1

Data set [6] concerns the target T4, CYP-P450 2D6 (Homo sapiens, UniProt P10635).
T4 construct: host or cells: human liver microsomes or recombinant P450 microsomes
The experiment in a line: CYP-P450 reversible inhibition, 2D6. The class given is in vitro ADME. The following applies: human liver microsomes or recombinant P450 microsomes; fluorescent probe. As to the method: as §1

Data set [7] can be described thus: Rat pharmacokinetics. The class given is in vivo, Sprague-Dawley rats. The following applies: for Vd / clearance / half-life / AUCN, i.v. dosing @ 1 mpk: iv, 1 mg/kg; for AUCN, p.o. dosing @ 2 mpk: po, 2 mg/kg. As to the method: As exemplified in Table 7, the in vivo pharmacokinetic profiles for Examples 1 and 3 and the comparator Compound #290 were determined in the rat at the standard screening doses of 1 mpk i.v. and 2 mpk p.o. (Note 10).
Compounds were formulated as their mono-L-malic acid salts at 1 mg/mL in PEG-200:water 70:30 (v:v) and administered to Sprague-Dawley rats (n=2 for i.v. and n=3 for p.o. arms) at a dose of 1 mg/kg i.v. or 2 mgk p.o. (free base equivalent). Blood samples were taken at 0.03, 0.08, 0.25, 0.50, 1, 2, 4, 6, 8 and 24 hours for the i.v. arm and at 0.25, 0.50, 1, 2, 4, 6, 8 and 24 hours for the p.o. arm. The plasma concentrations of test compound at each time point were determined by protein precipitation with acetonitrile followed by liquid chromatography—tandem mass spectrometry versus a standard curve. The PK parameters were calculated using validated techniques known in the literature (see Stedman's Medical Dictionary, 23rd ed.).

Data set [8] in a line: Liver microsome stability in 4 species: monkey. The class given is in vitro ADME. The following applies: substrate 0.5 uM, microsome 0.25 mg/mL. As to the method: as §2, §3
Data set [9] in a line: Liver microsome stability in 4 species: dog. The following applies: substrate 0.5 uM, microsome 0.25 mg/mL. It counts as in vitro ADME. As for the experimental part:
as §2, §3

The structures appear in SMILES notation. Like-named read-outs stand apart in the source and are kept apart here.

T4 sequence (P10635 whole entry): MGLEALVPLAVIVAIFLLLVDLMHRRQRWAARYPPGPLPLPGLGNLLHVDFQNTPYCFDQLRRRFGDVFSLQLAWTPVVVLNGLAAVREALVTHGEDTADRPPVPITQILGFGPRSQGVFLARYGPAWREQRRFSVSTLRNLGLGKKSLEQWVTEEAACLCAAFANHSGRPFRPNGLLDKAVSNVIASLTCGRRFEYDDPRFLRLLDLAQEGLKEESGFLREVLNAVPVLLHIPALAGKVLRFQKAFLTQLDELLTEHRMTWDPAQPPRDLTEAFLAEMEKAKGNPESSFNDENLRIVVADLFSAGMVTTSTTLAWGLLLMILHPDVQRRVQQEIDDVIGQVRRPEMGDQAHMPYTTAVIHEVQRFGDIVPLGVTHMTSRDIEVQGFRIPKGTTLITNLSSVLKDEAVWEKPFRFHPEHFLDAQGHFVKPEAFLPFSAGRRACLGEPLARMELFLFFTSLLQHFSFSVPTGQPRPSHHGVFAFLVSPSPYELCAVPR
T2 sequence (P11712 whole entry): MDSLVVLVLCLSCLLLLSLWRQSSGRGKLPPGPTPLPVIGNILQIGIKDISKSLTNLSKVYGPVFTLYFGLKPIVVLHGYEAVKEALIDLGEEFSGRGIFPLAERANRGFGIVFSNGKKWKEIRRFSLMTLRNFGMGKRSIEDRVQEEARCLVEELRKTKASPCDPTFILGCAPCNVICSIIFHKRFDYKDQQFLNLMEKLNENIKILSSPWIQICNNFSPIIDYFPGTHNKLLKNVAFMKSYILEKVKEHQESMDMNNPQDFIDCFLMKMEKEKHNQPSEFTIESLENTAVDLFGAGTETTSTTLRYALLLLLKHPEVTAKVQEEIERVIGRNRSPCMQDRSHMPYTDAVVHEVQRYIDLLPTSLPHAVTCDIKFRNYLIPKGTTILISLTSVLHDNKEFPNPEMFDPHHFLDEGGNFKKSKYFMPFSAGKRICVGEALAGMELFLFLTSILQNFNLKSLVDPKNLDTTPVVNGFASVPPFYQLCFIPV
T1 sequence (P08684 whole entry): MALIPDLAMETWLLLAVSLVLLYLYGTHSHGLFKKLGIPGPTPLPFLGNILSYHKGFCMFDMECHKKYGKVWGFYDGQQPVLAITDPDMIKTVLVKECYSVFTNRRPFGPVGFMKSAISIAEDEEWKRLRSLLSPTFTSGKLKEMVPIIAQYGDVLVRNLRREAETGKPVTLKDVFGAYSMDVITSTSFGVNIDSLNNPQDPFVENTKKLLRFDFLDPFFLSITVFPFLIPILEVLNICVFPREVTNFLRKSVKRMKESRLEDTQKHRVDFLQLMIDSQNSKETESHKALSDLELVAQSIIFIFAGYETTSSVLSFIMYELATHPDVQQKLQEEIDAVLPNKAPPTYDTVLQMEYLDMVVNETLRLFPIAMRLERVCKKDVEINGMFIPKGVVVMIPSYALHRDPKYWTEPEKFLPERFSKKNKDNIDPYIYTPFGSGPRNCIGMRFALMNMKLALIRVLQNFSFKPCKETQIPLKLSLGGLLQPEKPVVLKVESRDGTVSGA
T3 sequence (P10635 whole entry): as the sequence (P10635 whole entry) above
CYP3A4, sequence (P08684 whole entry): as the sequence (P08684 whole entry) above

As to `CCC[C@@H](NC(=O)N1C(=O)C(CC)(CC)[C@@H]1Oc1ccc(C(=O)N(C)CCN(C)C)cc1)c1ccc(OC)cc1` [Compound #290, reference compound], the half-inhibitory concentration (IC50) was 62 µM in data set [1]; > 8 µM in [2]; 25 µM in data set [4]; > 8 µM in [5]; 39 µM in data set [6]. Further, the figures for the “% Left @ 30 min” value in data set [3], in data set [8] and in data set [9] were 99%, 90% and 100%, respectively. For the same compound, the figures for the “% Left @ 60 min” value in data set [3], in data set [8] and in [9] were 93%, 67% and 102%, respectively. Also, in data set [7] (Sprague-Dawley, in vivo), the F was 29%. In data set [7] (Sprague-Dawley, in vivo), this compound came in with a Vd of 14.5 L/kg. Moreover, in data set [7] (Sprague-Dawley, in vivo), the clearance was found to be 114 mL/min/kg. Also, the half-life in data set [7] (Sprague-Dawley, in vivo) is 2 h. In addition, the “AUCN, i.v. dosing @ 1 mpk” value in data set [7] (in vivo) is recorded as 0.28 μMhrkg/mg. In addition, the “AUCN, p.o. dosing @ 2 mpk” value in data set [7] (in vivo) came to 0.081 μMhrkg/mg.
Consider `CCC[C@@H](NC(=O)N1C(=O)C(CC)(CC)[C@@H]1Oc1ccc(C(=O)N(CC)CCN(C)C)cc1)c1ccc(OC(F)(F)F)cc1` [Example 1, 2-(S)-[4-(((2-(Dimethylamino)ethyl)ethylamino)carbonyl)phenoxy]-3,3-diethyl-N-[1-(R)-(4-(trifluoromethoxy)phenyl)butyl]-4-oxo-1-azetidinecarboxamide], for which the half-inhibitory concentration (IC50) in data set [1] is 46 µM; in [2] it was > 8 µM; in data set [4] it was 17 µM; in data set [5], > 8 µM; in data set [6] it was 37 µM. Besides, the “% Left @ 30 min” value was 96% in [3], 91% in data set [8] and 93% in data set [9]. Further, the “% Left @ 60 min” value is on record as 94% in data set [3], 77% in data set [8] and 86% in data set [9]. The same compound yielded a F in [7] (Sprague-Dawley, in vivo) of 25%. Further, the Vd in data set [7] (Sprague-Dawley, in vivo) was 11 L/kg. Further, the clearance in data set [7] (Sprague-Dawley, in vivo) is 42 mL/min/kg. In addition, the half-life in data set [7] (Sprague-Dawley, in vivo) is 3.1 h. For the same compound, in [7] (in vivo), the “AUCN, i.v. dosing @ 1 mpk” value is on record as 0.65 μMhrkg/mg. The “AUCN, p.o. dosing @ 2 mpk” value in [7] (in vivo) was 0.16 μMhrkg/mg.
In the case of `CCC[C@@H](NC(=O)N1C(=O)C(CC)(CC)[C@@H]1Oc1ccc(C(=O)N(CC)CCN(C)C)cc1)c1ccc(C(F)(F)F)cc1` [Example 3, 2-(S)-[4-(((2-(Dimethylamino)ethyl)ethylamino)carbonyl)phenoxy]-3,3-diethyl-N-[1-(R)-(4-(trifluoromethyl)phenyl)butyl]-4-oxo-1-azetidinecarboxamide], the half-inhibitory concentration (IC50) in data set [1] stood at 39 µM; in data set [4], 8.1 µM; in data set [6], 41 µM. For the same compound, the F in data set [7] (Sprague-Dawley, in vivo) is given as 28%; in [7] (oral bioavailability, p.o. 2 mpk vs i.v. 1 mpk) it was 28%. Further, the clearance in data set [7] (Sprague-Dawley, in vivo) was 113 mL/min/kg. Moreover, the Vd in data set [7] (Sprague-Dawley, in vivo, i.v. 1 mpk, mono-L-malic acid salts, read-out: VDss) is 29 L/kg. The half-life in [7] (Sprague-Dawley, in vivo, i.v. 1 mpk, mono-L-malic acid salts, read-out: t1/2 (converted)) was 3.7 h. For the same compound, the “AUCN, i.v. dosing @ 1 mpk” value in data set [7] (in vivo) amounted to 0.24 μMhrkg/mg. Also, the “AUCN, p.o. dosing @ 2 mpk” value in data set [7] (in vivo) was 0.069 μMhrkg/mg.

These data come from patent US20100216761A1, “NOVEL AZETIDINONES USEFUL AS INHIBITORS OF ELASTASE” (priority 2007, published 2010).
